Reference: ChEMBL document CHEMBL1125773, “Analogues of oxybutynin. Synthesis and antimuscarinic and bladder activity of some substituted 7-amino-1-hydroxy-5-heptyn-2-ones and related compounds” (1991)

Organism: Cavia porcellus
Test: Duration of action at which functional detrusor muscle contraction strength was measured using guinea pig model of cystometrogram
Parameters: species or system Muscle tissue

In order of rising Duration:
1. CC(C)N(CC#CCCC(=O)C(O)(c1ccccc1)C1CCCCC1)C(C)C (stereo unspecified)  32 min
2. CN(C)CC#CCCC(=O)C(O)(c1ccccc1)C1CCC1 (stereo in doubt; (-)-14b)  40 min
3. CN(C)CC#CCCC(=O)C(O)(c1ccccc1)c1ccccc1  45 min
4. CCNCC#CCCC(=O)C(O)(c1ccccc1)c1ccccc1  54 min
5. CC(C)C(O)(C(=O)CCC#CCN(C)C)c1ccccc1 (stereo unspecified)  80 min
6. CCNCC#CCCC(=O)C(O)(c1ccccc1)C1CCCCC1 (stereo unspecified)  85 min
7. CCNCC#CCCC(=O)C(O)(c1ccccc1)C1CCC1 (stereo unspecified)  103 min
8. CCN(CC)CC#CCCC(O)C(O)(c1ccccc1)C1CCCCC1 (stereo unspecified)  123 min
9. CN(C)CC#CCCC(=O)C(O)(c1ccccc1)C1CCCCC1 (stereo unspecified)  126 min
10. CCNCC#CCCC(=O)C(O)(c1ccccc1)C1CC2CCC1C2 (stereo unspecified)  165 min

The compounds below were run on Cavia porcellus (assay: Effect on in vivo functional detrusor muscle contraction strength using guinea pig model of cystometrogram).
Parameters: species or system Muscle tissue

`CN(CC#CCCC(=O)C(O)(c1ccccc1)C1CCCCC1)CCc1ccccc1` (stereo unspecified) was tested, and the Potency was >10.

In order of rising Potency:
1. CC(C)C(O)(C(=O)CCC#CCN(C)C)c1ccccc1 (stereo unspecified)  0.48
2. CN(C)CC#CCCC(=O)C(O)(c1ccccc1)C1CCCCC1 (stereo unspecified)  0.48
3. CN(C)CC#CCCC(=O)C(O)(c1ccccc1)c1ccccc1  0.59
4. CCNCC#CCCC(=O)C(O)(c1ccccc1)C1CCCCC1 (stereo unspecified)  0.98
5. CCNCC#CCCC(=O)C(O)(c1ccccc1)C1CC2CCC1C2 (stereo unspecified)  1.1
6. CCNCC#CCCC(=O)C(O)(c1ccccc1)C1CCC1 (stereo unspecified)  1.1
7. CCNCC#CCCC(=O)C(O)(c1ccccc1)c1ccccc1  1.5
8. CN(C)CC#CCCC(=O)C(O)(c1ccccc1)C1CCC1 (stereo in doubt; (-)-14b)  2.5
9. CCN(CC)CC#CCCC(=O)C(O)(c1ccccc1)C1CCCC1 (stereo unspecified)  3.1
10. CC(C)CC(O)(C(=O)CCC#CCN(C)C)c1ccccc1 (stereo unspecified)  4.1
11. CN(C)CC#CCCC(=O)C(O)(c1ccccc1)C12CCC(CC1)CC2 (stereo unspecified)  4.4
12. CC(C)N(CC#CCCC(=O)C(O)(c1ccccc1)C1CCCCC1)C(C)C (stereo unspecified)  5.3
13. CCN(CC)CC#CCCC(O)C(O)(c1ccccc1)C1CCCCC1 (stereo unspecified)  6.3
14. CN(C)CC#CC(CO)C(O)(c1ccccc1)C1CCCCC1 (stereo unspecified)  7.38
15. CN(C)CC#CCCC(=O)C(O)(C1CCCCC1)C1CCCCC1  15.3

Organism: Cavia porcellus
Test: Antimuscarinic effect determined by comparing ability to inhibit carbachol-induced guinea pig detrusor muscle contractions
Assay type: functional

In order of rising Kb:
1. CC(C)C(O)(C(=O)CCC#CCN(C)C)c1ccccc1 (stereo unspecified)  18.3 nM
2. CCN(CC)CC#CCCC(=O)C(O)(c1ccccc1)C1CCCC1 (stereo unspecified)  21 nM
3. CC(C)CC(O)(C(=O)CCC#CCN(C)C)c1ccccc1 (stereo unspecified)  30.5 nM
4. CN(C)CC#CCCC(=O)C(O)(c1ccccc1)C1CCCCC1 (stereo unspecified)  38.7 nM
5. CCNCC#CCCC(=O)C(O)(c1ccccc1)C1CC2CCC1C2 (stereo unspecified)  65 nM
6. CN(C)CC#CCCC(=O)C(O)(c1ccccc1)c1ccccc1  70.1 nM
7. CCN(CC)CC#CCCC(=O)C(O)(c1ccccc1)c1ccccc1  70.7 nM
8. CN(C)CC#CC(CO)C(O)(c1ccccc1)C1CCCCC1 (stereo unspecified)  99.7 nM
9. CN(C)CC#CCCC(=O)C(O)(c1ccccc1)C12CCC(CC1)CC2 (stereo unspecified)  115 nM
10. CN(C)CC#CCCC(=O)C(O)(c1ccccc1)C1CCC1 (stereo in doubt; (-)-14b)  149 nM
11. CN(C)CC#CCCC(=O)C(O)(C1CCCCC1)C1CCCCC1  169 nM
12. CCNCC#CCCC(=O)C(O)(c1ccccc1)c1ccccc1  200 nM
13. CCNCC#CCCC(=O)C(O)(c1ccccc1)C1CCC1 (stereo unspecified)  224 nM
14. CCNCC#CCCC(=O)C(O)(c1ccccc1)C1CCCCC1 (stereo unspecified)  232 nM
15. CN(CC#CCCC(=O)C(O)(c1ccccc1)C1CCCCC1)CCO (stereo unspecified)  257 nM
16. CC(C)N(CC#CCCC(=O)C(O)(c1ccccc1)C1CCCCC1)C(C)C (stereo unspecified)  260 nM
17. CN(CC#CCCC(=O)C(O)(c1ccccc1)C1CCCCC1)CCc1ccccc1 (stereo unspecified)  551 nM
18. CCN(CC)CC#CCCC(O)C(O)(c1ccccc1)C1CCCCC1 (stereo unspecified)  1600 nM
19. CN(C)Cc1ccc(CCC(=O)C(O)(c2ccccc2)C2CCCCC2)cc1 (stereo unspecified)  1900 nM
20. NCC#CCCC(=O)C(O)(c1ccccc1)C1CCCCC1 (stereo unspecified)  2100 nM
21. O=C(CCC#CCNCc1ccccc1)C(O)(c1ccccc1)C1CCCCC1 (stereo unspecified)  4200 nM
22. CCN(CC)CC#CCCC(=O)C(C)(O)c1ccccc1 (stereo unspecified)  5200 nM

For `CCCCN(CC#CCCC(=O)C(O)(c1ccccc1)C1CCCCC1)CCCC` (stereo unspecified), the Kb was >5000 nM.
With `CN(C)CC#CCCC(=O)C(O)(c1ccccc1)C12C[C@H]3C[C@@H](C1)C[C@@H](C2)C3` (stereo partly specified) the Kb was >5000 nM.
In the case of `CN(C)CC#CCCC(=O)C(O[Si](C)(C)C)(c1ccccc1)C1CCCCC1` (stereo unspecified), the Kb is reported as >5000 nM.
